In patent US11140903B2, “Fungicidal compositions and methods” (Bayer CropScience LP, priority 2010, dated 2021):

What was measured:
Anthracnose = assay: Fluopyram efficacy by fungus (Table 3)
Didymella = settings: Fungus: Didymella
[1] = system: sudden death syndrome (SDS); assay: Soybean seed treatment: resistance to SDS (incidence, severity, defoliation); type: in vivo, Glycine max (L.) Merr.
Method: (§1) Soybean seeds (Glycine max (L.) Merr., an indeterminate line) were treated with Trilex® 2000 (7.12% (w/v) trifloxystrobin, 5.69% (w/v) metalaxyl), Gaucho® 600 FS (48.7%, (w/v) imidacloprid), Votivo® 240 FS (21.5%, (w/v) Bacillus firmus strain 1-1582), and fluopyram (41.5%, (w/v)) in the amounts and combinations shown in TABLE 1.
(§2) Seed growth and resistance to SDS were evaluated. Data on the incidence and severity of disease, plant vigor, plant count, plant density, defoliation, and yield were collected. Identification of SDS was based on the visual symptoms described in “Compendium of Soybean Diseases” (Glen Lee Hartman, J. B. Sinclair, and John Clark Rupe, eds. Am. Phytopathological Soc. 1999).
Disease incidence was defined as the percentage of plants in the plot with visible symptoms of SDS. […] The values above each bar in FIG. 1 are the value of that bar along they-axis.
Symptoms of disease severity were determined as percent severity, on a scale of 0% to 100%, by examining the leaf area on the tops of plants and determining the area affected by SDS, expressed as a percentage of the total area. […] The error bars of FIG. 2 represent standard error, and the values above each bar are the value of that bar along the y-axis.
Defoliation was defined as the percentage of plants showing evidence of defoliation in a given plot (i.e., on a scale of 0% to 100%). […] The values above each bar are the value of that bar along the y-axis.

Cylindrocladium = settings: Fungus: Cylindrocladium
Sclerotinia = assay: Fluopyram efficacy by fungus (Table 3)
Colletotrichum = assay: Fluopyram efficacy by fungus (Table 3)
Description: (§3) Without wishing to be bound by theory, the applicant hypothesizes that the decreased incidence and severity of SDS observed in plants from seed treated with fluopyram contributes to improved vigor and reduced defoliation, which in turn contributes to improved yield.

Rusts = assay: Fluopyram efficacy by fungus (Table 3)
Description: as §3

Fusarium = assay: Fluopyram efficacy by fungus (Table 3)
Description: as §3

Sigatoka = assay: Fluopyram efficacy by fungus (Table 3)
Alternaria = assay: Fluopyram efficacy by fungus (Table 3)
Venturia = assay: Fluopyram efficacy by fungus (Table 3)
soybean plants = assay: Soybean seed treatment: plant vigor, count density and yield; type: in vivo, Glycine max (L.) Merr.
Method: as §1, §2
Vigor ratings, based on visual assessments of plant health, were collected according to the system shown in TABLE 2, with 1 being a healthy and vigorous plant and 6 being extremely low vigor.
The error bars of FIG. 3 represent standard error, and the values within each bar are the value of that bar along the y-axis.
Plant density was calculated as the change in density versus controls. […] The values above or below each bar are the value of that bar along the y-axis.
To determine yield, soybeans were harvested from each plot, weighed, and their moisture content determined. The data from each treatment were normalized to the standard weight of 60 pounds of soybeans at 13% moisture. […] The values above or below each bar are the value of that bar along the y-axis.

Mycosphaerella = assay: Fluopyram efficacy by fungus (Table 3)
Powdery mildews = settings: Fungus: Powdery mildews
Septoria = settings: Fungus: Septoria
Monilinia = assay: Fluopyram efficacy by fungus (Table 3)
Pyrenophora = assay: Fluopyram efficacy by fungus (Table 3)
Botrytis = assay: Fluopyram efficacy by fungus (Table 3)

With `O=C(NCCc1ncc(C(F)(F)F)cc1Cl)c1ccccc1C(F)(F)F` [Fluopyram, N-{2-[3-chloro-5-(trifluoromethyl)-2-pyridinyl]ethyl}-2-trifluoromethylbenzamide] the “Fluopyram Efficacy” value (Anthracnose) was “+”, the “Fluopyram Efficacy” value (Didymella) was “++” and the “Disease incidence (percentage of plants in the plot with visible symptoms of SDS)” value ([1]; FIG. 1, compared between seeds with and without fluopyram) was “significantly reduced disease incidence”. For the same compound, the “Disease severity (percent leaf area affected by SDS)” value ([1]; FIG. 2, compared between seeds with and without fluopyram) was “less disease severity”, the “Defoliation (percentage of plants showing evidence of defoliation in a plot)” value ([1]; FIG. 5, compared between seeds with and without fluopyram) was “less defoliation” and the “Fluopyram Efficacy” value (Cylindrocladium) was “++”. The “Fluopyram Efficacy” value (Sclerotinia) was “++++”, the “Fluopyram Efficacy” value (Colletotrichum) was “++” and the “Fluopyram Efficacy” value (Rusts) was “+”. For the same compound, the “Fluopyram Efficacy” value (Fusarium; Fungus: Fusarium) was “+”, the “efficacy of fluopyram against Fusarium” value (Fusarium; relative to other fungi) was “low” and the “Fluopyram Efficacy” value (Sigatoka) was “++++”. For the same compound, the “Fluopyram Efficacy” value (Alternaria) was “+++”, the “Fluopyram Efficacy” value (Venturia) was “+++” and the “Count density (change in plant density versus control)” value (soybean plants; fluopyram alone, 0.17-0.67 mga/seed (columns 4-6), FIG. 4, versus control) was “decreased count density”. For the same compound, the “Vigor (visual vigor rating, scale 1-6 of Table 2)” value (soybean plants; soybean seed treatment, FIG. 3) was “not adversely affected”, the “Percent yield versus control” value (soybean plants; soybean seed treatment, FIG. 6, normalized to 60 pounds at 13% moisture, versus seeds not treated with fluopyram) was “greater percent yield” and the “Fluopyram Efficacy” value (Mycosphaerella) was “++++”. The “Fluopyram Efficacy” value (Powdery mildews) was “++++”, the “Fluopyram Efficacy” value (Septoria) was “++” and the “Fluopyram Efficacy” value (Monilinia) was “++++”. The “Fluopyram Efficacy” value (Pyrenophora) was “+++” and the “Fluopyram Efficacy” value (Botrytis) was “++++”.
